Entries after “also recorded” stand apart in the source; their conditions may differ.
Legend:
S. aureus = type: cell-based; conditions: 10 – 80 μM, pH 7.0 and 5.7, 6 hours
Mtb [1] = type: cell-based
Mtb [2] = experiment: Bactericidal activity of AC2P36; type: cell-based, Mycobacterium tuberculosis strain CDC1551
Mtb cytoplasmic pH = experiment: Cytoplasmic pH measurement; type: cell-based; conditions: pH 5.7, over 24 hours
[3] = system: Mtb reporter strain CDC1551::roGFP-R12; type: cell-based, Mycobacterium tuberculosis; conditions: pH 7.0 and 5.7, 0.1 – 20 μM, 6 h
Mtb [4] = experiment: Fractional killing and potentiation of antimicrobials; type: cell-based, Mycobacterium tuberculosis; conditions: pH 5.7, 3 days; for reduction in bacterial growth relative to the initial inoculum, compound alone: 10 μM AC2P36 alone or 10 μM INH alone
Mtb [5] = experiment: Menadione sensitivity assay; type: cell-based, Mycobacterium tuberculosis; conditions: pH 5.7, dose response of AC2P36 and menadione, six days, OD
Mtb [6] = experiment: Intracellular reactive oxygen species; type: cell-based, Mycobacterium tuberculosis
Mtb free thiol pools = experiment: Free thiol pools in Mtb; type: cell-based; conditions: for free thiol pools relative to DMSO/untreated control: pH 7.0 and 5.7, 24 hours, 2 or 20 μM AC2P36, 20 μM auranofin, INH
in vitro = type: cell-based; conditions: mouse
Staphylococcus aureus = type: cell-based; conditions: neutral and acidic pH
Enterococcus faecalis = type: cell-based; conditions: neutral and acidic pH
Escherichia coli = type: cell-based; conditions: neutral and acidic pH
Pseudomonas auruginosa = type: cell-based; conditions: neutral and acidic pH
Proteus vulgaris = type: cell-based; conditions: neutral and acidic pH
S. aureus free thiols = experiment: Free thiols in S. aureus; type: cell-based, Staphylococcus aureus strain Newman; conditions: 20 μM, pH 5.7
S. aureus (ΔsodAΔsodM) = type: cell-based; conditions: pH 7.0 and 5.7
Mtb [7] = experiment: Protection from AC2P36 by ROS scavenging agents; type: cell-based, Mycobacterium tuberculosis; conditions: pH 5.7, dose response of scavenger, six days, OD

O[C@@H](CS)[C@@H](O)CS (racemic) [DTT, Dithiothreitol, reference compound]
ROS accumulation in S. aureus (S. aureus): had no effect on ROS accumulation

COc1ccc(NC(=O)c2nc(S(C)(=O)=O)ncc2Cl)cc1Cl [AC2P36, 5-chloro-N-(3-chloro-4-methoxyphenyl)-2-methylsulfonylpyrimidine-4-carboxamide]
selectivity at acidic pH (pH 5.7 vs pH 7.0 EC50) (Mtb [1]): ~ 10 fold | concentrations at which Mtb growth is slowed/inhibited at neutral pH (Mtb [1]; pH 7.0): > 30 μM | reduction of viability relative to the DMSO treated control (Mtb [2]; 20 μM AC2P36, pH 5.7, by 7 days): ~ 100 fold | concentrations at which bactericidal activity is observed (Mtb [2]; pH 5.7, 6 days of treatment): > 10 µM | effect on Mtb cytoplasmic pH (Mtb cytoplasmic pH): does not modulate Mtb cytoplasmic pH | cytoplasmic redox status (roGFP) [3]: leads to a reduced cytoplasm in a dose-dependent and pH-independent manner; also recorded: promotes a reduced cytoplasm in a dose-dependent and pH-independent manner | synergy/potentiation in combination with rifampin (Mtb [4]; 10 μM AC2P36 + 0.3 μM rifampin): no significant synergy; also recorded: No potentiation was observed | reduction in bacterial growth relative to the initial inoculum, compound alone (Mtb [4]): approximately 2 fold | synergy with menadione (Mtb [5]): did not synergize | accumulation of intracellular ROS (Mtb [6]; 2 or 20 μM AC2P36, pH 7.0 and 5.7, 24 hours): dose-dependent and pH-dependent accumulation of reactive oxygen species; also recorded: significant induction of ROS | depletion of free thiols vs DMSO treated samples (Mtb free thiol pools; 20 μM AC2P36, pH 5.7, 24 hours): ~ 16 fold | free thiol concentration after treatment (Mtb free thiol pools; 20 μM AC2P36, pH 5.7, 24 hours (DMSO ~1.3 μM)): ~ 80 nM | reduction of free thiols (Mtb free thiol pools; 20 μM AC2P36, pH 7.0, 24 hours): reduced by one third | free thiol pools relative to DMSO/untreated control (Mtb free thiol pools): significantly depleted thiol pools at both pH 7.0 and 5.7 | CC50 at 3 days (in vitro): 17 µM | susceptibility of S. aureus to AC2P36 (Staphylococcus aureus): exhibit susceptibility to AC2P36 | susceptibility of E. faecalis to AC2P36 (Enterococcus faecalis): exhibit susceptibility to AC2P36 | susceptibility of E. coli to AC2P36 (Escherichia coli): relatively unaffected | susceptibility of P. aeruginosa to AC2P36 (Pseudomonas auruginosa): relatively unaffected | susceptibility of P. vulgaris to AC2P36 (Proteus vulgaris): relatively unaffected | ROS accumulation in S. aureus (S. aureus): enhanced ROS accumulation in a dose-dependent manner | reduction in free thiols in S. aureus (S. aureus free thiols): ~ 30% | enhanced sensitivity of S. aureus (ΔsodAΔsodM) to AC2P36 compared to WT (S. aureus (ΔsodAΔsodM)): ~ 2 fold

CC(C)/N=c1\cc2n(-c3ccc(Cl)cc3)c3ccccc3nc-2cc1Nc1ccc(Cl)cc1 [Clofazimine, clofazimine, reference compound]
effect on Mtb growth, compound alone (Mtb [4]; 100 μM clofazimine alone): did not impact Mtb growth

NNC(=O)c1ccncc1 [INH, isoniazid, reference compound]
reduction in bacterial growth relative to the initial inoculum, compound alone (Mtb [4]): approximately 2 fold | free thiol pools relative to DMSO/untreated control (Mtb free thiol pools): comparable thiol concentrations as the untreated cultures

CC(=O)N[C@@H](CS)C(=O)O [NAC, N-acetylcysteine]
protection of Mtb from 32 μM AC2P36 (Mtb [7]): protects Mtb from killing by 32 μM AC2P36 in a dose dependent manner

CC(=O)OC[C@H]1O[C@@H]([S-])[C@H](OC(C)=O)[C@@H](OC(C)=O)[C@@H]1OC(C)=O.CCP(CC)CC.[Au+] [auranofin, reference compound]
free thiol pools relative to DMSO/untreated control (Mtb free thiol pools): depleted free thiols relative to the DMSO treated control | reduction in free thiols in S. aureus (S. aureus free thiols): ~ 30%

CN(C)C(=O)/N=N/C(=O)N(C)C [diamide, reference compound]
enhancement in bacterial growth relative to the initial inoculum, compound alone (Mtb [4]; 1 mM diamide alone): 1.8 fold | accumulation of intracellular ROS (Mtb [6]; 20 μM diamide, neutral pH): resists diamide treatment | accumulation of intracellular ROS (Mtb [6]; 20 μM diamide, pH 5.7): significant increase in ROS

Source: paper PMC5562523 (Cell chemical biology, 2017)
